Structures can show the parent of a compound that is named as a salt. Where two headings read alike, the source gives them in different places.
Legend:
conventional mice = test: in vivo; settings: p.o.; comparison products
Experimental: (§1) A toxicity study was carried out on conventional mice weighing about 20 grams.
(§2) The compounds corresponding to the general formula I according to the present invention and the pharmaceutically acceptable salts thereof were administered orally. The DL50 was calculated according to the method by L. C. Miller and M. L. Tainter--Proc. Soc. Exper.

[1] = tested on: carragenine oedema, rat's foot; test: anti-inflammatory oedema test by injecting carragenine into a rat's foot (Winter, Ribley and Nuss); format: in vivo
Experimental: Winter, E. Ribley and G. Nuss--Proc. Soc. Exper. Biol. Med., 1962, 111, 544 547.
The products were administered orally in suspension in a Tween-water mixture 2 hours before the experiment. All the administered compounds have a good anti-inflammatory activity. It will particularly be noted that the compound of Example 14 has a DE50 of 3 mg/kg.

in vivo = settings: mouse, in vivo, po
Experimental: as §1, §2

[2] = tested on: pain (phenyl benzoquinone injection); test: pain-killing activity according to Siegmund (phenyl benzoquinone injection); format: in vivo; settings: oral, 30 minutes before injection of phenyl benzoquinone; read-out: DE50 (pain-killing activity)
Experimental: The pain-killing activity was studied according to Siegmund--J. Pharm. Exptl. ther., 1957, 119,453.
The compounds according to the present invention were administered orally 30 minutes before the injection of phenyl benzoquinone.

[3] = Rattus norvegicus, po, comparison products, read-out: DE50 (carragenine)
[4] = Rattus norvegicus, po, read-out: DE50 (carragenine)

Phenylbutanone
LD50 (conventional mice): 400 mg/kg | DE50 (carragenine) ([1]; p.o., comparison products): 30 mg/kg

CC(C)Cc1ccc(C(C)C(=O)O)cc1 (stereo not drawn) [Ibuprofen]
ED50 [1, 3]: 14 mg/kg

CC(C(=O)OCC(=O)N1CCN(C)CC1)c1ccc(-c2ccccc2Cl)cc1 (stereo not drawn) [Example 12, 2-(4-methylpiperazino)-2-oxoethyl 2-(2'-chloro-4-biphenylyl)propionate hydrochloride]
LD50 (in vivo): > 500 mg/kg | ED50 [2]: 7 mg/kg

COc1ccc2cc([C@H](C)C(=O)O)ccc2c1 [Naproxen]
ED50 [1, 3]: 5 mg/kg

CC(C(=O)OCC(=O)N1CCC(c2ccccc2)CC1)c1ccc(-c2ccccc2Cl)cc1 (stereo not drawn) [Example 14, 2-(4-phenylpiperidino)-2-oxoethyl 2-(2'-chloro-4-biphenylyl)propionate]
LD50 (in vivo): > 500 mg/kg | ED50 [2]: 5 mg/kg | ED50 ([1]; rat, oral suspension in Tween-water, 2 hours before the experiment, read-out: DE50 (anti-inflammatory activity)): 3 mg/kg

CC(=O)Oc1ccccc1C(=O)O [Aspirin]
ED50 [1, 4]: 135 mg/kg

COc1ccc2c(c1)c(CC(=O)O)c(C)n2C(=O)c1ccc(Cl)cc1 [Indometacine]
LD50 (conventional mice): 20 mg/kg | ED50 [1, 4]: 4 mg/kg

— patent US4510142A, “Derivatives of biphenyl alkyl carboxylates and their use as medicaments” (Pierre Fabre S.A., priority 1981, dated 1985)
